Laboratory results from patent publication USRE47689E1, “Compounds for treating spinal muscular atrophy” (PTC Therapeutics, Inc., priority 2011, dated 2019).
Like-named read-outs stand apart in the source and are kept apart here.

Assays:
[1] = system: SMN2 minigene (full length SMN2 minigene mRNA containing SMN2 exon 7); experiment: SMN2 minigene mRNA splicing RT-qPCR assay in cultured cells; assay type: cell-based, human; settings: Homo sapiens, HEK293-H, read-out: EC1.5x for production of full length SMN2 mRNA
In short: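 Read-out: full-length (exon 7-included) SMN2 minigene mRNA by multiplex RT-qPCR with GAPDH, efficiency-corrected (1+E)^−Ct, GAPDH-normalized and divided by vehicle. Stably transfected HEK293H cells, 24 h compound exposure, duplicates per concentration. Value is EC1.5x, reported as star ranges.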

Smn protein = Smn protein assay in cultured cells (SMN HTRF); assay type: cell-based, human; settings: for EC1.5x (concentration giving 1.5-fold Smn protein increase): read-out: EC1.5x for Smn protein expression
In short: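 Lysates in RIPA with protease inhibitors are incubated overnight at room temperature with HTRF anti-SMN antibodies. EC1.5x is derived from fold increase in ΔF over vehicle.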

[2] = HEK293H cells stably transfected with SMN2-A minigene, 24 hours, 7-point concentration curve, 1.5-fold relative to vehicle-treated cells
[3] = SMA Type 1 patient fibroblast cells (GM03813), 48 hours, 7-point concentration curve, SMN HTRF, concentration producing 1.5 times Smn protein vs DMSO vehicle control
[4] = SMA patient fibroblast cells, 48 hours, 7-point concentration data, fold increase relative to vehicle control (SMN HTRF)

melting point [°C]	SMILES	EC (1.5-fold) [1, 2] [µM]	EC1.5x (concentration giving 1.5-fold Smn protein increase) (Smn protein; [3]) [nM]	maximum fold (Fold) increase of Smn protein (Smn protein; [4])	EC (1.5-fold) ([1]; 24 h) [µM]	maximum fold (Fold) increase of Smn protein (Smn protein)	EC1.5x (concentration giving 1.5-fold Smn protein increase) (Smn protein) [nM]
217 to 220	Cc1cn2cc(-c3cc4ccc(N5CC[C@H](NC(C)C)C5)cc4oc3=O)cc2c(C)n1 [Compound 725, 3-(1,3-dimethylpyrrolo[1,2-a]pyrazin-7-yl)-7-[(3S)-3-(propan-2-ylamino)pyrrolidin-1-yl]-2H-chromen-2-one]	< 0.1	300 to 1000	*** (fold increase between >1.35 and ≤1.5)	–	–	–
267 to 275	C[C@@H]1CN(c2ccc3cc(-c4cn5ccc(C(F)(F)F)cc5n4)c(=O)oc3c2)C[C@H](C)N1C [Compound 168, 3-[7-(trifluoromethyl)imidazo[1,2-a]pyridin-2-yl]-7-[(3R,5S)-3,4,5-trimethylpiperazin-1-yl]-2H-chromen-2-one]	1 to 3	–	* (maximum fold increase of ≤1.2)	–	–	–
255 to 258	Cc1cnc2nc(-c3cc4ccc(O[C@@H]5CCNC5)cc4oc3=O)cn2c1.Cl.Cl [Compound 327, 3-(6-methylimidazo[1,2-a]pyrimidin-2-yl)-7-[(3R)-pyrrolidin-3-yloxy]-2H-chromen-2-one hydrochloride (1:2)]	0.3 to 1	–	** (fold increase between >1.2 and ≤1.35)	–	–	–
203 to 206	Cc1cn2cc(-c3cc4ccc(CCNC(C)CO)cc4oc3=O)nc2c(C)n1 (centres unmarked) [Compound 872, 3-(6,8-dimethylimidazo[1,2-a]pyrazin-2-yl)-7-{2-[(1-hydroxypropan-2-yl)amino]ethyl}-2H-chromen-2-one]	0.1 to 0.3	300 to 1000	**** (fold increase between >1.5 and ≤1.65)	–	–	–
134 to 136	C[C@H]1CN(c2ccc3cc(-c4ccc5c(c4)OCO5)c(=O)oc3c2)CCN1 [Compound 489, 3-(1,3-benzodioxol-5-yl)-7-[(3S)-3-methylpiperazin-1-yl]-2H-chromen-2-one]	3 to 30	–	* (maximum fold increase of ≤1.2)	–	–	–
222 to 226	Cc1cn2cc(-c3cc4ccc(C5CCN(CCO)CC5)cc4oc3=O)ccc2n1 [Compound 829, 7-[1-(2-hydroxyethyl)piperidin-4-yl]-3-(2-methylimidazo[1,2-a]pyridin-6-yl)-2H-chromen-2-one]	< 0.1	< 300	***** (fold increase >1.65)	–	–	–
205 to 209	Cc1cn2cc(-c3cc4ccc(N5CCN[C@H](C)C5)cc4oc3=O)cc2c(C)n1 [Compound 668, 3-(1,3-dimethylpyrrolo[1,2-a]pyrazin-7-yl)-7-[(3R)-3-methylpiperazin-1-yl]-2H-chromen-2-one]	< 0.1	< 300	***** (fold increase >1.65)	–	–	–
238	Cc1cc(Cl)cn2cc(-c3cc4ccc(N5CCN(C)CC5)cc4oc3=O)nc12 [Compound 264, 3-(6-chloro-8-methylimidazo[1,2-a]pyridin-2-yl)-7-(4-methylpiperazin-1-yl)-2H-chromen-2-one]	1 to 3	–	* (maximum fold increase of ≤1.2)	–	–	–
254 to 264	C[C@@H]1CN(c2ccc3cc(-c4cn5cc(C6CC6)cc(F)c5n4)c(=O)oc3c2)CCN1 [Compound 503, 3-(6-cyclopropyl-8-fluoroimidazo[1,2-a]pyridin-2-yl)-7-[(3R)-3-methylpiperazin-1-yl]-2H-chromen-2-one]	0.3 to 1	–	* (maximum fold increase of ≤1.2)	–	–	–
191 to 193	C[C@@H]1CN(c2ccc3cc(-c4cc5ccccc5o4)c(=O)oc3c2)C[C@H](C)N1 [Compound 604, 3-(1-benzofuran-2-yl)-7-[(3R,5S)-3,5-dimethylpiperazin-1-yl]-2H-chromen-2-one]	0.3 to 1	–	* (maximum fold increase of ≤1.2)	–	–	–
238 to 241	O=c1oc2cc(N3CCN4CCC[C@@H]4C3)ccc2cc1-c1cn2cccc(F)c2n1 [Compound 531, 3-(8-fluoroimidazo[1,2-a]pyridin-2-yl)-7-[(8aR)-hexahydropyrrolo[1,2-a]pyrazin-2(1H)-yl]-2H-chromen-2-one]	0.3 to 1	–	** (fold increase between >1.2 and ≤1.35)	–	–	–
254 to 256	Cc1cnc2nc(-c3cc4ccc(N5CCN[C@@H](C)C5)cc4oc3=O)cn2c1 [Compound 462, 3-(6-methylimidazo[1,2-a]pyrimidin-2-yl)-7-[(3S)-3-methylpiperazin-1-yl]-2H-chromen-2-one]	< 0.1	1000 to 3000	*** (fold increase between >1.35 and ≤1.5)	–	–	–
225 to 228	Cc1ccc(Nc2cc3ccc(N4CCNCC4)cc3oc2=O)nc1 [Compound 63, 3-[(5-methylpyridin-2-yl)amino]-7-(piperazin-1-yl)-2H-chromen-2-one]	1 to 3	–	** (fold increase between >1.2 and ≤1.35)	–	–	–
270 to 277	Cc1cc(F)c2nc(-c3cc4ccc(N5CCN(C)[C@@H](C)C5)cc4oc3=O)cn2c1 [Compound 471, 7-[(3S)-3,4-dimethylpiperazin-1-yl]-3-(8-fluoro-6-methylimidazo[1,2-a]pyridin-2-yl)-2H-chromen-2-one]	0.1 to 0.3	300 to 1000	**** (fold increase between >1.5 and ≤1.65)	–	–	–
246 to 249	CN1CCN(c2ccc3cc(-c4cn5ccncc5n4)c(=O)oc3c2)CC1 [Compound 457, 3-(imidazo[1,2-a]pyrazin-2-yl)-7-(4-methylpiperazin-1-yl)-2H-chromen-2-one]	0.1 to 0.3	–	** (fold increase between >1.2 and ≤1.35)	–	–	–
286 to 292	Cc1cn2cc(-c3cc4ccc(Cn5ccnc5)cc4oc3=O)nc2c(C)n1 [Compound 851, 3-(6,8-dimethylimidazo[1,2-a]pyrazin-2-yl)-7-(1H-imidazol-1-ylmethyl)-2H-chromen-2-one]	1 to 3	–	*** (fold increase between >1.35 and ≤1.5)	–	–	–
217 to 220	Cc1cn2cc(-c3cc4ccc(N5CCN(C6CCC6)CC5)cc4oc3=O)cc2c(C)n1 [Compound 814, 7-(4-cyclobutylpiperazin-1-yl)-3-(1,3-dimethylpyrrolo[1,2-a]pyrazin-7-yl)-2H-chromen-2-one]	< 0.1	< 300	***** (fold increase >1.65)	–	–	–
109 to 111	COc1c(F)cc(F)cc1-c1cc2ccc(N3C[C@@H](C)N[C@@H](C)C3)cc2oc1=O [Compound 540, 3-(3,5-difluoro-2-methoxyphenyl)-7-[(3R,5S)-3,5-dimethylpiperazin-1-yl]-2H-chromen-2-one]	3 to 30	–	* (maximum fold increase of ≤1.2)	–	–	–
256 to 259	Cc1cn2cc(-c3cc4ccc(N5CCC(CN)CC5)cc4oc3=O)cc2c(C)n1 [Compound 784, 7-[4-(aminomethyl)piperidin-1-yl]-3-(1,3-dimethylpyrrolo[1,2-a]pyrazin-7-yl)-2H-chromen-2-one]	1 to 3	–	** (fold increase between >1.2 and ≤1.35)	–	–	–
193 to 196	Cc1cn2cc(-c3cc4ccc(N5CC[C@H](NC(=O)OC(C)(C)C)C5)cc4oc3=O)cc2c(C)n1 [Compound 724, tert-butyl {(3S)-1-[3-(1,3-dimethylpyrrolo[1,2-a]pyrazin-7-yl)-2-oxo-2H-chromen-7-yl]pyrrolidin-3-yl}carbamate]	1 to 3	–	* (maximum fold increase of ≤1.2)	–	–	–

SMILES	melting point [°C]	EC (1.5-fold) [1, 2] [µM]	EC1.5x (concentration giving 1.5-fold Smn protein increase) (Smn protein; [3]) [nM]	maximum fold (Fold) increase of Smn protein (Smn protein; [4])	EC (1.5-fold) ([1]; 24 h) [µM]	maximum fold (Fold) increase of Smn protein (Smn protein)	EC1.5x (concentration giving 1.5-fold Smn protein increase) (Smn protein) [nM]
O=c1oc2cc(N3CCNCC3)ccc2cc1-c1ccncc1F [Compound 126, 3-(3-fluoropyridin-4-yl)-7-(piperazin-1-yl)-2H-chromen-2-one]	202 to 204	–	–	* (maximum fold increase of ≤1.2)	3 to 30	–	–
C[C@@H]1CN(c2ccc3cc(-c4cccs4)c(=O)oc3c2)C[C@H](C)N1 [Compound 364, 7-[(3R,5S)-3,5-dimethylpiperazin-1-yl]-3-(thiophen-2-yl)-2H-chromen-2-one]	150 to 152	–	–	* (maximum fold increase of ≤1.2)	1 to 3	–	–
O=c1oc2cc(N3CCNCC3)cc(F)c2cc1-c1ccccn1 [Compound 161, 5-fluoro-7-(piperazin-1-yl)-3-(pyridin-2-yl)-2H-chromen-2-one]	221 to 225	–	–	–	1 to 3	*** (key: *: maximum fold increase of ≤1.2; **: fold increase between >1.2 and ≤1.35; ***: fold increase between >1.35 and ≤1.5; ****: fold increase between >1.5 and ≤1.65; *****: fold increase >1.65)	3000 to 10000
